Data reported in patent US8642532B2, “Excipients for protein stabilization” (priority 2007, dated 2014).
One block for each molecule: values may come before it.

What was measured:
[1] = target: T1, BSA (Bos taurus, UniProt P02769); test: Reduction of aggregation of BSA induced by t-butanol, SEC HPLC; type: physicochemical, Bovine; settings: BSA precipitated with t-butanol, re-dissolved in PBS
T1 construct: BSA stock solution (35%, in water, 0.85% sodium chloride, from Sigma); purchased Sigma / Sigma Aldrich
Method: To three separate test tubes containing 0.050 ml of BSA (35%, 0.85% sodium chloride) and 0.050 ml of phosphate buffer (50 mM, pH 7.4), were respectively added 0.010 ml of water, 0.010 mll of 2-formylbenzenesulfonic acid sodium salt (75 mg/ml, pH 8), and 0.010 ml of pyridoxal phosphate (100 mg/ml, pH 7.4). To each of the three tubes were then added 0.50 ml of PEG solution (75%, molecular weight 3400) followed by centrifugation to give some precipitate. The three supernatants were collected to have BSA at saturated concentrations, and to them were separately added 0.50 ml of t-butanol to have more BSA precipitates after centrifugation. The crops of precipitates from t-butanol were washed with t-butanol twice (0.75 ml each) and re-dissolved in PBS buffer (50 mM sodium phosphate, pH 7.4, 0.85% sodium chloride) for SEC HPLC analysis. Plain BSA produced about 75% of aggregates, the sample with 2-formylbenzenesulfonic acid produced about 60% of aggregates, the sample with pyridoxal phosphate produced less than 50% of aggregates.

[2] = target: T2, Bovine Serum Albumin (BSA) (Bos taurus, UniProt P02769); test: Inhibition of thermal aggregation of BSA, SEC HPLC; type: physicochemical; settings: 65° C., BSA 1.75 mg/ml, excipient 11.25 mg/ml, pH 7.4
T2 construct: BSA stock solution (35%, in water, 0.85% sodium chloride, from Sigma); purchased Sigma / Sigma Aldrich
Method: A 0.050 ml of BSA stock solution (35%, in water, 0.85% sodium chloride, from Sigma) was diluted into 0.450 ml of sodium phosphate buffer (50 mM, pH 7.4, 0.85% sodium chloride) to give a BSA solution at concentration of 35 mg/ml. An excipient, 2-formylbenzenesulfonic acid, sodium salt (Aldrich, 75%), was made into a solution in water (HPLC grade) at concentration of 75 mg/ml, and its pH was adjusted to 8 using dilute hydrochloric acid.
An aliquot of 0.050 ml of the above stock BSA solution (35 mg/ml) was diluted into PBS buffer (pH 7.4, 0.80 ml), and 0.15 ml of the excipient solution was added to it to make a BSA concentration of 1.75 mg/ml, and the excipient of 11.25 mg/ml. A separate sample was prepared without the addition of the excipient. Both samples in capped glass tubes are incubated at 65° C. […] […] SEC column: TSK gel G3000 SW, 7.5×300 mm, Tosoh Biosciences, part number 05789. Mobile phase: 50 mM phosphate buffer, pH 7.4, 0.85% sodium chloride. Flow rate: 1.0 ml/min. Detection: 280 nm Instrument: BuckChrom BLC-20.

[3] = target: T3, Myoglobin (Horse Skeleton) (Equus caballus, UniProt P68082); test: Inhibition of myoglobin thermal aggregation at 65° C.; type: physicochemical
T3 construct: Myoglobin (Horse Skeleton, Sigma) was made into a stock solution (10 mg/ml); purchased Sigma; host or cells: horse skeletal muscle ('Horse Skeleton' [sic])
Method: Myoglobin (Horse Skeleton, Sigma) was made into a stock solution (10 mg/ml) in sodium bicarbonate buffer (0.1 M, pH 9.0). This solution (0.5 ml) was then mixed with various excipient stock solutions (0.10 ml) to provide a series of test samples with the same final myoglobin concentration and varying excipient concentrations ([X]). Then the samples in sealed test tubes were inserted into wells of heating block that was pre-set at 65° C., and the incubation was continued over a period of time, to observe the formation of fibrillation precipitates (PPT).

[4] = target: T1, BSA; test: Screening of excipients at pH 6.2 for capacity to deter BSA from forming a gel; type: physicochemical, Bovine; settings: for Results, 65° C., 60 minutes: BSA 175 mg/ml
Method: Various excipients were tested for their capacity to deter BSA from forming a gel, using sucrose as a reference, in malonic acid buffer (25 mM), incubated at 65° C. for 60 minutes. The excipients used were sucrose, 4-formylbenzene-1,3-disulfonic acid, 4-formylbenzoic acid, phenylglyoxylic acid, glyoxylic acid. (Tables 2 through 6).

[5] = target: T1, BSA; test: Inhibition of BSA thermal aggregation (gel/solid formation) at 65° C. over 60 min, phosphate buffer; type: physicochemical, Bovine
Method: […] All samples were inserted into wells of heating block that was preset at 65° C.
Ten microliter of the above clear solutions were each diluted with 1.0 ml of phosphate buffer (pH 7.4), and a reference sample of BSA solutions of 2.5 mg/ml was prepared in the same buffer. Small aliquot of 0.10 ml of all the five diluted samples were analyzed on SEC HPLC (TSK gel G 3000 SW, 5 mm×300 mm), eluted with 50 mM sodium phosphate buffer (pH 7.4) containing 0.85% sodium chloride at flow rate of 1.0 ml/min monitored at 280 nm.

[6] = target: T4, zinc-free recombinant human insulin, NovoRapid, LisPro (Homo sapiens, UniProt P01308); test: Inhibition of insulin fibrillation by glyoxylic acid, rotator at room temperature; type: physicochemical; settings: 20 mM glyoxylic acid, phosphate buffer pH 7.0, room temperature, rotator 12 rotations per minute
T4 construct: A solution of zinc-free recombinant human insulin was prepared in phosphate buffer
Method: (§1) A solution of zinc-free recombinant human insulin was prepared in phosphate buffer (50 mM, pH 7.0, no sodium chloride) at concentration of 1.0 mg/ml, containing 0 and 20 mM glyoxylic acid. Commercial NovoRapid (Novo Nordisk, 100 IU/ml) was diluted with phosphate buffer to 25 IU/ml, with and without glyoxylic acid (0 or 20 mM). Humalog 25 (100 IU/ml, Eli Lilly) was centrifuged to collect the supernatant, and the LisPro concentration was assumed to be 25 IU/ml. Then two LisPro samples were made with and without glyoxylic acid (0 or 20 mM) with assumed final LisPro concentration of 20 IU/ml. Each of the samples (1.0 ml) was transferred into a capped 10 ml test tube, and loaded onto a rotator that was set at 12 rotations per minute at room temperature.

[7] = target: T5, Humulin R (zinc insulin) (Homo sapiens, UniProt P01308); test: Inhibition of zinc insulin fibrillation by glyoxylic acid, rotator at room temperature; type: physicochemical; settings: containing glyoxylic acid, conditions as in Example 11, rotator
T5 construct: purchased
Method: as §1, with “temperature. […] Conditions were as in Example 11 above, but using commercial Humulin R (100 IU/ml).” for “temperature.”

[8] = pH 9.0, 5 weeks, one cell for all [X] of the excipient
[9] = pH 9.0, 1 days, one cell for all [X] of the excipient
[10] = pH 9.0, 2 days, one cell for all [X] of the excipient
[11] = pH 9.0, 4 days, one cell for all [X] of the excipient
[12] = malonate 25 mM pH 6.2, excipient 9.4 mg/ml
[13] = malonate 25 mM pH 6.2, excipient 18.8 mg/ml
[14] = malonate 25 mM pH 6.2, excipient 37.5 mg/ml

T3 sequence (P68082 whole entry): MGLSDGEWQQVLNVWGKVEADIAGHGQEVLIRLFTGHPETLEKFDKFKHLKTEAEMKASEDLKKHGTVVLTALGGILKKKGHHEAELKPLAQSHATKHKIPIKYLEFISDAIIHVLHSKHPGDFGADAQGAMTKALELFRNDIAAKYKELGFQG
T1 sequence (P02769 25-607): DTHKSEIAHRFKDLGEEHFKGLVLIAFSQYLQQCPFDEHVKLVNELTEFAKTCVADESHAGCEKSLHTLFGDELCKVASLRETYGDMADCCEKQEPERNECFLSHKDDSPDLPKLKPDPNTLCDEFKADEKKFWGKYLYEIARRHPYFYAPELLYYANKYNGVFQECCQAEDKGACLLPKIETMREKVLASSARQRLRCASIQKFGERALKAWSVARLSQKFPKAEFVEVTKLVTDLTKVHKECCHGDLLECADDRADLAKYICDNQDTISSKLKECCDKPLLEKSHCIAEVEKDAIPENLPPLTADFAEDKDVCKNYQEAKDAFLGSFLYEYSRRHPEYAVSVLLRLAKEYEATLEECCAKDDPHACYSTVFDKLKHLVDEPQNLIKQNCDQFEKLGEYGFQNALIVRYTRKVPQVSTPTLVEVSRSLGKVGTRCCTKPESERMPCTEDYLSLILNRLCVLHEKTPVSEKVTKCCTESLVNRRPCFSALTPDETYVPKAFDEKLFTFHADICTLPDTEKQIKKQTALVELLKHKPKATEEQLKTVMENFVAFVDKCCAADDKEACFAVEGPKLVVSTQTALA
T2 sequence (P02769 25-607): as above
T4 sequence (P01308 25-54 limits assumed): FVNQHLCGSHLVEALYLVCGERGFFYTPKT
T4 sequence (P01308 90-110 limits assumed): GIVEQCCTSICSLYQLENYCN
T5 sequence (P01308 25-54 limits assumed): as the sequence (P01308 25-54 limits assumed) above

Structure (SMILES): O=Cc1ccccc1S(=O)(=O)[O-].[Na+] [2-formylbenzenesulfonic acid, 2-formylbenzenesulfonic acid, sodium salt]
Aggregates produced [1]: about 60%
BSA aggregation on SEC HPLC ([2]; 40 minutes): no significant change of BSA
BSA aggregation on SEC HPLC ([2]; 60 minutes): aggregates started to show up in an insignificant amount

Structure (SMILES): O=Cc1cc(C(=O)O)ccc1O [3-Formyl-4-hydroxylbenzoic Acid]
Formation of fibrillation precipitates (PPT) [3, 8]: Precipitate
Formation of fibrillation precipitates (PPT) [3, 9]: Precipitate
Formation of fibrillation precipitates (PPT) [3, 10]: Precipitate
Formation of fibrillation precipitates (PPT) [3, 11]: Precipitate

Structure (SMILES): O=Cc1ccc(S(=O)(=O)O)cc1S(=O)(=O)O [4-Formyl-1,3-benzenedisulfonic Acid, 4-Formyl-1,3-benzenedisulfonic acid]
Results, 65° C., 60 minutes ([4]; malonate 25 mM pH 6.2, excipient 7.1 mg/ml): Clear
Results, 65° C., 60 minutes ([4]; malonate 25 mM pH 6.2, excipient 14.4 mg/ml): Clear
Results, 65° C., 60 minutes ([4]; malonate 25 mM pH 6.2, excipient 28.8 mg/ml): Clear
Rank in deterring myoglobin from fibrillation (summary in words) ([3]; pH 9.0): best among this group
Formation of fibrillation precipitates (PPT) [3, 8]: Clear
Formation of fibrillation precipitates (PPT) [3, 9]: Clear
Formation of fibrillation precipitates (PPT) [3, 10]: Clear
Formation of fibrillation precipitates (PPT) [3, 11]: Clear
Results, 65° C., 60 minutes ([5]; BSA 262.5 mg/ml, phosphate 25 mM pH 7.4, excipient 12.5 mg/ml): Clear
Results, 65° C., 60 minutes ([5]; BSA 262.5 mg/ml, phosphate 25 mM pH 7.4, excipient 12.5 mg/ml, listed as 4-Formyl-1,3-benzenedisulfonic acid): prevents BSA (262 mg/ml) from turning into gellified solid
Results, 65° C., 60 minutes ([5]; BSA 262.5 mg/ml, phosphate 25 mM pH 7.4, excipient 25 mg/ml): Clear
Results, 65° C., 60 minutes ([5]; BSA 262.5 mg/ml, phosphate 25 mM pH 7.4, excipient 50 mg/ml): Clear
Results, 65° C., 60 minutes ([5]; repeated at pH 6.8, excipient 12.5 mg/ml): remained as clear solution

Further lines, with some results ahead:

Results, 65° C., 60 minutes [4, 12]: Clear
Results, 65° C., 60 minutes [4, 13]: Clear
Results, 65° C., 60 minutes [4, 14]: Clear
Structure (SMILES): O=Cc1ccc(C(=O)O)cc1 [4-Formylbenzoic acid]

Results, 65° C., 60 minutes ([4]; malonate 25 mM pH 6.2, excipient 5.8 mg/ml): Clear
Results, 65° C., 60 minutes ([4]; malonate 25 mM pH 6.2, excipient 11.5 mg/ml): Clear
Results, 65° C., 60 minutes ([4]; malonate 25 mM pH 6.2, excipient 23 mg/ml): Clear
Formation of fibrillation precipitates (PPT) [3, 8]: Precipitate
Formation of fibrillation precipitates (PPT) ([3]; pH 9.0, 1 days, higher part of [X] 16.7/41.7/83.3 mM (cell span not shown)): Clear
Formation of fibrillation precipitates (PPT) ([3]; pH 9.0, 1 days, lower part of [X] 16.7/41.7/83.3 mM (cell span not shown)): PPT
Formation of fibrillation precipitates (PPT) ([3]; pH 9.0, 2 days, higher part of [X] 16.7/41.7/83.3 mM (cell span not shown)): Clear
Formation of fibrillation precipitates (PPT) ([3]; pH 9.0, 2 days, lower part of [X] 16.7/41.7/83.3 mM (cell span not shown)): PPT
Formation of fibrillation precipitates (PPT) [3, 11]: Precipitate
Structure (SMILES): O=CC(=O)O [Glyoxylic Acid]
Appearance of insulin solution (fibrillation) [6]: stayed in clear solutions beyond four weeks
Appearance of Humulin R solution (fibrillation) [7]: remained clear six days before turning cloudy

Results, 65° C., 60 minutes [4, 12]: Clear
Results, 65° C., 60 minutes [4, 13]: Clear
Results, 65° C., 60 minutes [4, 14]: Clear
Formation of fibrillation precipitates (PPT) [3, 8]: Precipitate
Formation of fibrillation precipitates (PPT) [3, 9]: Precipitate (PPT)
Formation of fibrillation precipitates (PPT) [3, 10]: Precipitate
Formation of fibrillation precipitates (PPT) [3, 11]: Precipitate
Structure (SMILES): O=C(O)C(=O)c1ccccc1 [Phenylglyoxylic Acid]

Results, 65° C., 60 minutes ([4]; malonate 25 mM pH 6.2, excipient 75 mg/ml): Pale Gel
Results, 65° C., 60 minutes ([4]; malonate 25 mM pH 6.2, excipient 125 mg/ml): Pale Gel
Results, 65° C., 60 minutes ([4]; malonate 25 mM pH 6.2, excipient 175 mg/ml): Gel
Structure (SMILES): OC[C@H]1O[C@@](CO)(O[C@H]2O[C@H](CO)[C@@H](O)[C@H](O)[C@H]2O)[C@@H](O)[C@@H]1O [Sucrose, sucrose, reference compound]
Power to prevent BSA from turning into gel or solid (summary in words) ([4]; pH 6.2, 65° C., 60 minutes, all concentrations tested): does not have strong power to prevent BSA from turning into gel or solid
